Measured values as given in patent publication US20170334899A1, “AMINO-SUBSTITUTED ISOTHIAZOLES” (Bayer Pharma Aktiengesellschaft, priority 2014, published 2017).

What was measured:
[1] = test system: human cervical tumor cell line HeLa (ATCC CCL-2); test: SAC-Formation - Nocodazole-Induced Assay; assay type: cell-based; conditions: Homo sapiens, HeLa, 24 h, HeLa cells, nocodazole 0.1 μg/ml together with test compound, decrease of mitotic cells (phospho-histone H3 Ser10)
Procedure, shortened: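 HeLa cells, plated overnight, were treated 24 h at 37 °C with nocodazole (0.1 μg/ml final) plus test compound (0.005–20 μM, 0.5% DMSO) added at the same time. After fixation, anti-phospho-histone H3 Ser10 and Hoechst staining gave the mitotic cell fraction by imaging. Values came from four-parameter Hill fits.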

[2] = test system: human cervical tumor cell line HeLa (ATCC CCL-2); test: SAC-Formation - Paclitaxel-Induced Assay; assay type: cell-based; conditions: Homo sapiens, HeLa, 24 h, HeLa cells, paclitaxel 0.05 μM, test range 0.005 μM-20 μM, read-out: IC50 [mol/l] SAC-Formation - Paclitaxel-Induced Assay
Procedure, shortened: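 HeLa cells incubated overnight at 37° C, then given paclitaxel (0.05 μM final) plus test compound (0.005–20 μM, 0.5% DMSO) together for 24 h at 37° C. Fixed cells stained for phospho-histone H3 Ser10 (mitotic cells) and Hoechst 33342 (cell count); imaging-derived mitotic index fitted by four-parameter Hill equation.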

Compound	IC50 [1] [nM]	IC50 [2] [nM]
COCCOc1ccc(NC(=O)c2c(C)nsc2Nc2nc3c(C(F)(F)F)cccc3s2)cc1F [Example 1, N-[3-Fluoro-4-(2-methoxyethoxy)phenyl]-3-methyl-5-{[4-(trifluoromethyl)-1,3-benzothiazol-2-yl]amino}-1,2-thiazole-4-carboxamide]	72	94
Cc1nsc(Nc2nc3c(C(F)(F)F)cccc3s2)c1C(=O)Nc1ccc(OCCO)nc1 [Example 2, N-[6-(2-Hydroxyethoxy)pyridin-3-yl]-3-methyl-5-{[4-(trifluoromethyl)-1,3-benzo-thiazol-2-yl]amino}-1,2-thiazole-4-carboxamide]	560	460
COCCOc1ccc(NC(=O)c2c(C)nsc2Nc2nc3c(C(F)(F)F)cccc3s2)cn1 [Example 3, N-[6-(2-Methoxyethoxy)pyridin-3-yl]-3-methyl-5-{[4-(trifluoromethyl)-1,3-benzo-thiazol-2-yl]amino}-1,2-thiazole-4-carboxamide]	230	130
Cc1nsc(Nc2nc3c(C(F)(F)F)cccc3s2)c1C(=O)Nc1ccc(OCCO)c(F)c1 [Example 4, N-[3-Fluoro-4-(2-hydroxyethoxy)phenyl]-3-methyl-5-{[4-(trifluoromethyl)-1,3-benzothiazol-2-yl]amino}-1,2-thiazole-4-carboxamide]	980	980
Cc1nsc(Nc2cnc(C(F)(F)F)cn2)c1C(=O)Nc1ccc(OC2CCN(C(=O)OC(C)(C)C)CC2)nc1 [Example 5, tert-Butyl 4-[(5-{[(3-methyl-5-{[5-(trifluoromethyl)pyrazin-2-yl]amino}-1,2-thiazol-4-yl)carbonyl]amino}pyridin-2-yl)oxy]piperidine-1-carboxylate]	43	110
Cc1nsc(Nc2cc(C#N)ccn2)c1C(=O)Nc1ccc(OC2CCCNC2)nc1 (stereo not shown) [Example 35, 5-[(4-Cyanopyridin-2-yl)amino]-3-methyl-N-[6-(piperidin-3-yloxy)pyridin-3-yl]-1,2-thiazole-4-carboxamide]	15000	20000
Cc1nsc(Nc2ccc(C#N)cn2)c1C(=O)Nc1ccc(OC2CCCN(C(=O)OC(C)(C)C)C2)nc1 (stereo not shown) [Example 36, tert-Butyl 3-({5-[({5-[(5-cyanopyridin-2-yl)amino]-3-methyl-1,2-thiazol-4-yl}-carbonyl)amino]pyridin-2-yl}oxy)piperidine-1-carboxylate]	210	590
Cc1nsc(Nc2ccc(C#N)cn2)c1C(=O)Nc1ccc(OC2CCCNC2)nc1 (stereo not shown) [Example 37, 5-[(5-Cyanopyridin-2-yl)amino]-3-methyl-N-[6-(piperidin-3-yloxy)pyridin-3-yl]-1,2-thiazole-4-carboxamide]	4200	5200
Cc1nsc(Nc2ccc(C#N)cn2)c1C(=O)Nc1ccc(OC2CCCN(CCF)C2)nc1 (stereo not shown) [Example 38, 5-[(5-Cyanopyridin-2-yl)amino]-N-(6-{[1-(2-fluoroethyl)piperidin-3-yl]oxy}pyridin-3-yl)-3-methyl-1,2-thiazole-4-carboxamide]	1800	13000
Cc1nsc(Nc2ccc(C#N)cn2)c1C(=O)Nc1ccc(OC2CCCN(CC(F)F)C2)nc1 (stereo not shown) [Example 39, 5-[(5-Cyanopyridin-2-yl)amino]-N-(6-{[1-(2,2-difluoroethyl)piperidin-3-yl]oxy}-pyridin-3-yl)-3-methyl-1,2-thiazole-4-carboxamide]	15	24
Cc1nsc(Nc2ccc(C#N)cn2)c1C(=O)Nc1ccc(OC2CCCN(CC(F)(F)F)C2)nc1 (stereo not shown) [Example 40, 5-[(5-Cyanopyridin-2-yl)amino]-3-methyl-N-(6-{[1-(2,2,2-trifluoroethyl)piperidin-3-yl]oxy}pyridin-3-yl)-1,2-thiazole-4-carboxamide]	150	390
Cc1nsc(Nc2cnccn2)c1C(=O)Nc1ccc(OC2CCCN(C(=O)OC(C)(C)C)C2)nc1 (stereo not shown) [Example 41, tert-Butyl 3-{[5-({[3-methyl-5-(pyrazin-2-ylamino)-1,2-thiazol-4-yl]carbonyl}amino)-pyridin-2-yl]oxy}piperidine-1-carboxylate]	240	1800
Cc1nsc(Nc2cnc3ccccc3n2)c1C(=O)Nc1ccc(OCCCNC(=O)OC(C)(C)C)nc1 [Example 42, tert-Butyl (3-{[5-({[3-methyl-5-(quinoxalin-2-ylamino)-1,2-thiazol-4-yl]carbonyl}-amino)pyridin-2-yl]oxy}propyl)carbamate]	820	1700
Cc1nsc(Nc2cc(C#N)ccn2)c1C(=O)Nc1ccc(OCCCNC(=O)OC(C)(C)C)nc1 [Example 43, tert-Butyl [3-({5-[({5-[(4-cyanopyridin-2-yl)amino]-3-methyl-1,2-thiazol-4-yl}-carbonyl)amino]pyridin-2-yl}oxy)propyl]carbamate]	130	300
Cc1nsc(Nc2cc(C#N)ccn2)c1C(=O)Nc1ccc(OCCCN)nc1 [Example 44, N-[6-(3-Aminopropoxy)pyridin-3-yl]-5-[(4-cyanopyridin-2-yl)amino]-3-methyl-1,2-thiazole-4-carboxamide]	20000	20000
Cc1nsc(Nc2cc(C#N)ccn2)c1C(=O)Nc1ccc(OCCCNCC(F)F)nc1 [Example 45, 5-[(4-Cyanopyridin-2-yl)amino]-N-(6-{3-[(2,2-difluoroethyl)amino]propoxy}pyridin-3-yl)-3-methyl-1,2-thiazole-4-carboxamide]	3500	20000
Cc1nsc(Nc2ccc(C#N)cn2)c1C(=O)Nc1ccc(OCCCNC(=O)OC(C)(C)C)nc1 [Example 46, tert-Butyl [3-({5-[({5-[(5-cyanopyridin-2-yl)amino]-3-methyl-1,2-thiazol-4-yl}-carbonyl)amino]pyridin-2-yl}oxy)propyl]carbamate]	41	250
Cc1nsc(Nc2cnccn2)c1C(=O)Nc1ccc(OCCCNC(=O)OC(C)(C)C)nc1 [Example 47, tert-Butyl (3-{[5-({[3-methyl-5-(pyrazin-2-ylamino)-1,2-thiazol-4-yl]carbonyl}-amino)pyridin-2-yl]oxy}propyl)carbamate]	3600	13000
Cc1nsc(Nc2cnccn2)c1C(=O)Nc1ccc(OCCCN)nc1 [Example 48, N-[6-(3-Aminopropoxy)pyridin-3-yl]-3-methyl-5-(pyrazin-2-ylamino)-1,2-thiazole-4-carboxamide]	5800	6600
Cc1nsc(Nc2cnc3ccccc3n2)c1C(=O)Nc1cccc(C(=O)OC(C)(C)C)c1 [Example 49, tert-Butyl 3-({[3-methyl-5-(quinoxalin-2-ylamino)-1,2-thiazol-4-yl]carbonyl}amino)-benzoate]	29	410
COC(=O)c1cccc(NC(=O)c2c(C)nsc2Nc2cnc3ccccc3n2)c1 [Example 50, Methyl 3-({[3-methyl-5-(quinoxalin-2-ylamino)-1,2-thiazol-4-yl]carbonyl}amino)-benzoate]	4500	620
Cc1nsc(Nc2cnc3ccccc3n2)c1C(=O)Nc1cccc(C(=O)O)c1 [Example 51, 3-({[3-Methyl-5-(quinoxalin-2-ylamino)-1,2-thiazol-4-yl]carbonyl}amino)benzoic acid]	20000	20000
Cc1nsc(Nc2cnc3ccccc3n2)c1C(=O)Nc1cccc(C(=O)N2CCOCC2)c1 [Example 52, 3-Methyl-N-[3-(morpholin-4-ylcarbonyl)phenyl]-5-(quinoxalin-2-ylamino)-1,2-thiazole-4-carboxamide]	28	780
Cc1nsc(Nc2cnc3ccccc3n2)c1C(=O)Nc1cccc(C(=O)NC(C)(C)C)c1 [Example 53, N-[3-(tert-Butylcarbamoyl)-phenyl]-3-methyl-5-(quinoxalin-2-ylamino)-1,2-thiazole-4-carboxamide]	950	1100
Cc1nsc(Nc2cnc(C(F)(F)F)cn2)c1C(=O)Nc1ccc(OC[C@H]2CCCN(CCC(F)(F)F)C2)nc1 [Example 378, 3-methyl-5-{[5-(trifluoromethyl)pyrazin-2-yl]amino}-N-(6-{[(3S)-1-(3,3,3-trifluoropropyl)piperidin-3-yl]methoxy}pyridin-3-yl)-1,2-thiazole-4-carboxamide]		29
CCCN1CCC(COc2ccc(NC(=O)c3c(C)nsc3Nc3cnc(C(F)(F)F)cn3)cn2)C(F)(F)C1 (stereo not shown) [Example 394, N-{6-[(3,3-difluoro-1-propylpiperidin-4-yl)methoxy]pyridin-3-yl}-3-methyl-5-{[5-(trifluoromethyl)pyrazin-2-yl]amino}-1,2-thiazole-4-carboxamide]		190
Cc1nsc(Nc2cnc(C(F)(F)F)cn2)c1C(=O)Nc1ccc(OCC2CCN(CC(F)F)CC2(F)F)nc1 (stereo not shown) [Example 401, N-(6-{[1-(2,2-difluoroethyl)-3,3-difluoropiperidin-4-yl]methoxy}pyridin-3-yl)-3-methyl-5-{[5-(trifluoromethyl)pyrazin-2-yl]amino}-1,2-thiazole-4-carboxamide]	27	
Cc1nsc(Nc2ccc(C#N)cn2)c1C(=O)Nc1ccc(OC[C@H]2CCN(CC(F)(F)F)C2)nc1 [Example 405, 5-[(5-Cyanopyridin-2-yl)amino]-3-methyl-N-(6-{[(35)-1-(2,2,2-trifluoroethyl)pyrrolidin-3-yl]methoxy}pyridin-3-yl)-1,2-thiazole-4-carboxamide]	86	
